Holding throughout (experiment): two-electrode voltage clamp, Xenopus oocytes
Holding throughout (format): cell-based

Test [1] addresses T1, UNC-105h (Caenorhabditis elegans, UniProt Q09274).
T1 construct: isoform h cDNA in KSM vector, Xenopus laevis oocytes, homomeric channel (trimer by known biology)
T1 sequence (Q09274 1-887): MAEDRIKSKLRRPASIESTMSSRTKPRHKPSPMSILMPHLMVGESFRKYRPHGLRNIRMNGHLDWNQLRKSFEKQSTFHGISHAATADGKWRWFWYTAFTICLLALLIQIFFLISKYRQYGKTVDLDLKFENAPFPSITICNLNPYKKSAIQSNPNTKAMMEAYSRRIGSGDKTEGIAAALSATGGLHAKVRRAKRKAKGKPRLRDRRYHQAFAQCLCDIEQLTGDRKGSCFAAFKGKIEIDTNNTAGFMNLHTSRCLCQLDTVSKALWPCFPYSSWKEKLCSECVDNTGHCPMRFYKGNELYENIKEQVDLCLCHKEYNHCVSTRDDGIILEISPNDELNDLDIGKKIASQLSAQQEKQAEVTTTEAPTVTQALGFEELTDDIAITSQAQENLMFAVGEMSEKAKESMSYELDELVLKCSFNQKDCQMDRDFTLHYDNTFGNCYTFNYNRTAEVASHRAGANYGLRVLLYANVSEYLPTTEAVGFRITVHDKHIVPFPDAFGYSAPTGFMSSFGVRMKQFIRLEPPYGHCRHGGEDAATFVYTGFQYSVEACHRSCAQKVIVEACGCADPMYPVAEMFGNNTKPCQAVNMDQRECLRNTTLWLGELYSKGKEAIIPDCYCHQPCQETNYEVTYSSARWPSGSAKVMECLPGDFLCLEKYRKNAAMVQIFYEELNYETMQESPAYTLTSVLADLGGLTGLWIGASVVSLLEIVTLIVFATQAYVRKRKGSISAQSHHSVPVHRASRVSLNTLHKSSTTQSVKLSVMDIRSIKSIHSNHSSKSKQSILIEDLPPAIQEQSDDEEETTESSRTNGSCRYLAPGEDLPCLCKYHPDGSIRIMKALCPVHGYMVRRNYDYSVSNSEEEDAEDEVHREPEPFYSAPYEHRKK
The settings on record: pH 7.4, -60 mV, ND96, room temperature; paradoxical biphasic response, low-concentration inhibition.

In the next test the target is T2, ASIC-1 (Caenorhabditis elegans, UniProt O01635).
T2 construct: full-length cDNA in KSM vector, Xenopus laevis oocytes, homomeric channel (trimer by known biology)
T2 sequence (O01635 1-823): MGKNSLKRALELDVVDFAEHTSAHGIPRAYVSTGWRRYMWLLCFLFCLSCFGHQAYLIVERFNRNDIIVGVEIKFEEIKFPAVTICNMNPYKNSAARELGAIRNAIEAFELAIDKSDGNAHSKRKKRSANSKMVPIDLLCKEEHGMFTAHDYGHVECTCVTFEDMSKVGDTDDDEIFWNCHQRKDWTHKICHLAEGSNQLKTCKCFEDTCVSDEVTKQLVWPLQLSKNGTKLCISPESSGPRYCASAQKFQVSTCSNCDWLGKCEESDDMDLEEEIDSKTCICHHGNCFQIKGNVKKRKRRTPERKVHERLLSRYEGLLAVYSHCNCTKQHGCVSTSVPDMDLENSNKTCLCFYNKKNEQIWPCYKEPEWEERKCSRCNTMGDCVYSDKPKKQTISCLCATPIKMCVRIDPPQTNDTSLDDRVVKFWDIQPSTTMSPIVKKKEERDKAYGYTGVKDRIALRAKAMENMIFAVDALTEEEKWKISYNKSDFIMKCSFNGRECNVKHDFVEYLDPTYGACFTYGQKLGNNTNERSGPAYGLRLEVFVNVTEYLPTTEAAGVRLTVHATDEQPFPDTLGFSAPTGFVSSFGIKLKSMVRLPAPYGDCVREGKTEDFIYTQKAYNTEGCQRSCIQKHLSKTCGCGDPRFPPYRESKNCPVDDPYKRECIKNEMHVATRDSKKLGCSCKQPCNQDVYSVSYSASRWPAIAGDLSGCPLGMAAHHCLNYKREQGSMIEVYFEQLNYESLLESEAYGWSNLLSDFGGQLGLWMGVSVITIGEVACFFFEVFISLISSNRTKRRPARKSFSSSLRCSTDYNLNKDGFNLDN

The target of test [2] is T1, UNC-105h. As to conditions: pH 7.4, -60 mV, ND96, room temperature; second, current-restoring phase of biphasic response; text b54 prints 6.7 µM instead.

The structures appear in SMILES notation.

For the molecule `N=C(N)NC(=O)c1nc(Cl)c(N)nc1N` [amiloride], the 50% inhibitory concentration (IC50) worked out at 760 nM against UNC-105h [1] and 108 µM against ASIC-1. At UNC-105h [2], this molecule yielded a half-maximal effective concentration (EC50) of 5.9 µM.

These data come from article PMC10424705, “Physiological insight into the conserved properties of Caenorhabditis elegans acid‐sensing degenerin/epithelial sodium channels” (The Journal of Physiology, 2022).
